In the assay the target is BRAF V600E (Homo sapiens, UniProt P15056, V600E). Description: LanthaScreen biochemical kinase assay. A general note: In TR-FRET formats the signal depends on donor and acceptor labels being close together.

Results on 2 molecules are retold here after article PMC6272942, “Lead Discovery of Type II BRAF V600E Inhibitors Targeting the Structurally Validated DFG-Out Conformation Based upon Selected Fragments” (Molecules, 2016).

BRAF V600E, sequence (P15056 whole entry V600E): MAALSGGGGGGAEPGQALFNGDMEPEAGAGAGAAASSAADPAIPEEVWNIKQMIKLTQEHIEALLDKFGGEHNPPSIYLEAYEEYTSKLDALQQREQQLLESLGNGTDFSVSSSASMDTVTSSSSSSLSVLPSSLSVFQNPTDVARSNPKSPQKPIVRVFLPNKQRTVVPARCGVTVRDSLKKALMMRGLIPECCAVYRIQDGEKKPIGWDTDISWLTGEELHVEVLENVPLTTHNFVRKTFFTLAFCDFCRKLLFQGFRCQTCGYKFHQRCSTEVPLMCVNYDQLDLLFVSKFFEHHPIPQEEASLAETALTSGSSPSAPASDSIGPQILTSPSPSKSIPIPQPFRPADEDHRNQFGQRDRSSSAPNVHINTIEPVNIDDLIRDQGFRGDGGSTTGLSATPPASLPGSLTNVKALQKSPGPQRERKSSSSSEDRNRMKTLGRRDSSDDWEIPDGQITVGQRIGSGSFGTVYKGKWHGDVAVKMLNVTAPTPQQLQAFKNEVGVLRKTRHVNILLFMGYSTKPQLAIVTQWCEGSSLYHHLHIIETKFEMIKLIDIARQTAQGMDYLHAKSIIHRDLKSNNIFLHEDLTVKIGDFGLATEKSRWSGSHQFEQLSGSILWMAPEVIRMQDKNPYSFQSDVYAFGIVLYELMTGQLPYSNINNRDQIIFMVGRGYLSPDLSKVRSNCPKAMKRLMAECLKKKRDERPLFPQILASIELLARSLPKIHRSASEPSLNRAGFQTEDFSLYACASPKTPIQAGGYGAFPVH

The term IC50 denotes the concentration at which inhibition is half-maximal. A higher IC50 goes with a need for much substance. On to `Cc1nc(Nc2ccc(NC(=O)Nc3ccc(F)c(Cl)c3)cc2)cc(N2CCOCC2)n1` [SI-008, 1-(3-Chloro-4-fluorophenyl)-3-(4-(2-methyl-6-morpholinopyrimidin-4-ylamino)phenyl)urea], for which the half-inhibitory concentration (IC50) was found to be 685 nM.
`Cc1nc(Nc2cccc(NC(=O)Nc3cc(F)ccc3C)c2)cc(N2CCOCC2)n1` [SI-046, 1-(5-Fluoro-2-methylphenyl)-3-(3-(2-methyl-6-morpholinopyrimidin-4-ylamino)phenyl)urea] showed an IC50 of 298 nM.
